Laboratory results reported in ChEMBL document CHEMBL1201862, “PubChem BioAssay data set” (2004).
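Cultured in 96-well plates, cells were exposed to test compound for 48 hours across five concentrations. At the GI50, growth is halved.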 The source made the active and inactive calls. Rule as the data show it: active = GI50 up to about 1.1 µM and inactive = higher.

Tests used:
Assay in all cases: NCI tumour cell line growth inhibition, 48 h
[1] = test system: IGROV-1
[2] = test system: Malme-3M
[3] = test system: RXF 393
[4] = test system: Hs-578T
[5] = test system: MDA-MB-435
[6] = test system: MDA-N
[7] = test system: COLO 205
[8] = test system: DU-145
[9] = test system: SF-268
[10] = test system: CCRF-CEM
[11] = test system: PC-3
[12] = test system: EKVX
[13] = test system: OVCAR-3
[14] = test system: KM12
[15] = test system: HOP-92
[16] = test system: U-251
[17] = test system: HT-29
[18] = test system: HCC 2998
[19] = test system: NCI/ADR-RES
[20] = test system: SK-MEL-5

Measured: GI50

N#Cc1c(O)nc2nn3c4ccc5ccccc5c4nnc3c2c1-c1ccc(Cl)cc1
inactive: [1] 1.2 µM | [2] 1.93 µM | [3] 2.01 µM | [4] 2.76 µM | [5] 3.3 µM | [6] 2.52 µM | [7] 2.24 µM | [8] 1.95 µM | [9] 2.51 µM | [10] 1.56 µM | [11] 2.43 µM | [12] 3.93 µM | [13] 1.69 µM | [14] 2.8 µM | [15] 2.3 µM | [16] 2.12 µM | [17] 2.94 µM | [18] 2.68 µM | [19] 4.55 µM | [20] 1.92 µM

CC(=O)O[C@H](C[C@@H](C)[C@H]1C(=O)[C@H](O)[C@@]2(C)C3CC[C@H]4C(C)(C)[C@@H](OC5OCC(O)C(O)C5O)CC[C@@]45C[C@@]35CC[C@]12C)[C@@H]1OC1(C)C (stereo partly specified)
inactive: [1] 16.2 µM | [2] 17.2 µM | [3] 16.8 µM | [4] 38 µM | [5] 17.7 µM | [6] 19.3 µM | [7] 22 µM | [8] 19 µM | [9] 20.7 µM | [10] 1.93 µM | [11] 15.2 µM | [12] 18 µM | [13] 2.29 µM | [14] 22.2 µM | [15] 16.9 µM | [16] 16.3 µM | [17] 29.4 µM | [18] 16.3 µM | [19] 47.3 µM | [20] 16.1 µM

NC(=O)NC(=O)c1ccc(NC(=O)CBr)cc1
inactive: [1] 2.03 µM | [2] 1.54 µM | [3] 1.77 µM | [4] 2.31 µM | [5] 1.53 µM | [6] 2.07 µM | [7] 1.48 µM | [8] 2.44 µM | [9] 1.4 µM | [11] 1.96 µM | [12] 2.38 µM | [14] 4 µM | [15] 1.6 µM | [17] 1.73 µM | [18] 12.8 µM | [19] 2.56 µM | [20] 1.62 µM
active: [10] 0.0769 µM | [13] 0.843 µM | [16] 0.984 µM

CC(=O)NC1C(OCc2ccccc2)OC(CO)C(O)C1OCC(=O)N[C@@H](C)C(=O)N[C@H](CCC(=O)NCCNCCNc1c2ccccc2nc2cccc([N+](=O)[O-])c12)C(N)=O (stereo partly specified)
inactive: [1] 8.87 µM | [2] 19.2 µM | [3] 36.4 µM | [4] 22.5 µM | [5] 29.6 µM | [6] 33.1 µM | [7] 25 µM | [8] 36.6 µM | [10] 24 µM | [11] 22.1 µM | [12] 31.6 µM | [13] 44 µM | [14] 24.2 µM | [15] 20.7 µM | [16] 34.3 µM | [17] 23.6 µM | [18] 6.52 µM | [19] > 100 µM | [20] 17.8 µM

C/C=C1/CC(C)C(C)(O)C(=O)OCC2C(O)CN3CCC(OC1=O)C23 (stereo unspecified)
inactive: [1] > 100 µM | [3] > 100 µM | [4] > 100 µM | [5] > 100 µM | [6] > 100 µM | [7] > 100 µM | [8] > 100 µM | [9] > 100 µM | [10] > 100 µM | [11] > 100 µM | [12] > 100 µM | [14] > 100 µM | [15] > 100 µM | [16] > 100 µM | [17] > 100 µM | [18] > 100 µM | [19] > 100 µM | [20] > 100 µM

NC(=O)NCCCC(NC(=O)OCCCCCCn1ccc(=O)[nH]c1=O)C(=O)O (stereo unspecified)
inactive: [1] > 100 µM | [3] > 100 µM | [4] > 100 µM | [5] > 100 µM | [6] > 100 µM | [7] > 100 µM | [8] > 100 µM | [9] > 100 µM | [10] > 100 µM | [11] > 100 µM | [12] > 100 µM | [13] > 100 µM | [14] > 100 µM | [15] > 100 µM | [16] > 100 µM | [17] > 100 µM | [18] > 100 µM | [19] > 100 µM

COc1cc(CNC(=O)CCCCCCCCCCSC#N)ccc1O
inactive: [1] 4.59 µM | [2] 32.7 µM | [3] 10.2 µM | [4] 14.2 µM | [5] 5.52 µM | [6] 5.87 µM | [7] 30.3 µM | [8] 17.8 µM | [10] 8.13 µM | [11] 6.82 µM | [12] 21.4 µM | [13] 13.1 µM | [14] 5.83 µM | [15] 17.1 µM | [16] 16.8 µM | [17] 31.9 µM | [18] > 100 µM | [19] 17.1 µM | [20] 6.22 µM

CCn1nc2c3c(ncn3C(C)(C)O2)c1=O
inactive: [1] > 100 µM | [2] > 100 µM | [3] > 100 µM | [4] > 100 µM | [5] > 100 µM | [6] > 100 µM | [7] > 100 µM | [8] > 100 µM | [9] > 100 µM | [10] > 100 µM | [11] > 100 µM | [12] > 100 µM | [14] > 100 µM | [15] > 100 µM | [16] > 100 µM | [17] > 100 µM | [18] > 100 µM | [19] > 100 µM | [20] > 100 µM

C[C@@H]1OC2(O)[C@@H]3CCCN3C(=O)N(Cc3ccccc3)N2C1=O (stereo partly specified)
inactive: [1] > 100 µM | [2] > 100 µM | [3] > 100 µM | [4] > 100 µM | [5] > 100 µM | [6] > 100 µM | [7] > 100 µM | [8] > 100 µM | [9] > 100 µM | [10] > 100 µM | [11] > 100 µM | [12] > 100 µM | [13] > 100 µM | [14] > 100 µM | [15] > 100 µM | [17] > 100 µM | [18] > 100 µM | [19] > 100 µM | [20] > 100 µM

N=c1c2c(ncn1N)Oc1c(c(-c3ccccc3)nn1-c1ccccc1)C2c1ccc(Cl)cc1 (stereo unspecified)
active: [7] 0.508 µM | [18] 0.762 µM
inactive: [1] 1.43 µM | [2] 1.61 µM | [3] 1.47 µM | [4] 1.64 µM | [5] 1.62 µM | [6] 1.82 µM | [8] 2.01 µM | [9] 1.71 µM | [10] 2.47 µM | [11] 1.63 µM | [12] 1.82 µM | [13] 1.56 µM | [14] 1.6 µM | [15] 1.71 µM | [16] 1.65 µM | [17] 1.39 µM | [19] 1.68 µM

N=C(/C=C/c1ccc(-c2cn3cc(/C=C/C(=N)N4CCCC4)ccc3n2)cc1)N1CCCC1
inactive: [1] > 100 µM | [2] 27 µM | [3] 50.6 µM | [4] 56.5 µM | [5] > 100 µM | [6] > 100 µM | [7] > 100 µM | [8] 50 µM | [9] > 100 µM | [11] > 100 µM | [12] > 100 µM | [13] 60.1 µM | [14] 60.3 µM | [15] > 100 µM | [16] 50.2 µM | [18] > 100 µM | [19] > 100 µM | [20] > 100 µM

CC1C[C@]2(C)C(=S)Nc3ccccc3[C@@H]2Nc2ccccc21 (stereo partly specified)
inactive: [1] 18.3 µM | [2] 15.9 µM | [3] 19 µM | [4] 35.2 µM | [5] 14.9 µM | [6] 15 µM | [7] 14.2 µM | [8] 4 µM | [10] 17.9 µM | [11] 15.4 µM | [12] 22.3 µM | [13] 15.1 µM | [14] 15.5 µM | [15] 12.2 µM | [17] 11.9 µM | [18] 22.2 µM | [19] 18.5 µM | [20] 17.7 µM
active: [9] 1.11 µM

CCN(CC)CCC(=O)O[C@H]1CC[C@H](CC(C)[C@H]2CC(=O)C(C)C=C(C)[C@H](OC(=O)CCN(CC)CC)C(OC)C(=O)[C@@H](C)CC(C)/C=C/C=C/C=C(C)C(OC)CC3CC[C@H](C)[C@](O)(O3)C(=O)C(=O)N3CCCCC3C(=O)O2)CC1OC (stereo partly specified)
active: [2] < 0.0108 µM | [3] 0.011 µM | [4] 0.0345 µM | [5] 0.264 µM | [6] 0.294 µM | [7] 0.906 µM | [8] 0.179 µM | [9] 0.348 µM | [10] < 0.0119 µM | [11] < 0.0195 µM | [12] 0.025 µM | [13] 0.202 µM | [14] 0.443 µM | [15] 0.0348 µM | [16] 0.0883 µM | [17] 0.21 µM | [18] 0.267 µM | [19] 0.697 µM | [20] 0.173 µM

C/C1=C/C[C@@H](/C(C)=C/c2csc(C)n2)OC(=O)C[C@H](O)C(C)(C)C(=O)[C@H](C)[C@@H](O)[C@@H](C)CCC1 [EPOTHILONE D]
active: [1] < 0.0001 µM | [3] < 0.0001 µM | [4] < 0.0001 µM | [5] < 0.0001 µM | [6] < 0.0001 µM | [7] < 0.0001 µM | [8] < 0.0001 µM | [9] < 0.0001 µM | [10] < 0.0001 µM | [11] < 0.0001 µM | [12] < 0.0001 µM | [13] < 0.0001 µM | [14] < 0.0001 µM | [15] 0.141 µM | [16] < 0.0001 µM | [17] < 0.0001 µM | [18] < 0.0001 µM | [19] < 0.0001 µM | [20] < 0.0001 µM
